Results on two substances are retold here after patent US20060057104A1, “Methods for stimulating tlr irf3 pathways for inducing anti-microbial, anti-inflammatory and anticancer responses” (THE Regents of the University of California Office of the …, priority 2002, published 2006).

In one assay the test system is MHV68. As to the kind of experiment: MHV68 replication in BMMs treated with TLR ligands (immunoblot of viral proteins). The conditions noted are these: MOI=5, 48 hours, 10, 1 or 0.1 ng/ml lipid A, 100 nM CpG, 10 μg/ml PGN, 1, 0.1 or 0.01 μg/ml poly I:C. The format is cell-based, Murine gammaherpesvirus 68. The procedure: (E) BMMs were infected with MHV68 (moi=5) and simultaneously treated with the indicated TLR ligands (100 nM CpG; 10, 1, or 0.1 ng/ml lipid A; 10 μg/ml PGN; or 1, 0.1, or 0.01 μg/ml poly I:C). After 48 hr, cells were harvested and analyzed for MHV68 replication proteins by immunoblotting using rabbit anti-MHV68 antibodies.
Murine gammaherpesvirus 68 (MHV68) was produced and titered as previously described (Wu, T.-T., Tong, L., Rickabaugh, T., Speck, S., and Sun, R. (2001), J. Virol. 75, 9262-9273). For infection of macrophages, cells were simultaneously treated with PAMPs and infected with MHV68 at an MOI of 5. Following an incubation period of 48 hours cells were lysed in Laemmli buffer and 10% of total volume was subjected to SDS-PAGE, transferred to nitrocellulose, and MHV68 proteins detected by western blotting.
BMMs were simultaneously infected with MHV68 (MOI=5) and treated with various TLR ligands (10, 1 or 0.1 ng/ml lipid A, 100 nM CpG, 10 μg/ml PGN or 1, 0.1, or 0.01 μg/ml poly I:C) for 48 hours, and replication of viral proteins was then assayed by western blot analysis. […] This was true whether BMMs were treated with 10 or 20 μg/ml PGN and the inhibition was always considerably weaker than that caused by either 1 ng/ml lipid A or 1 μg/ml poly I:C.
In general terms: In western blotting, separated proteins are transferred to a membrane and probed.

Another assay deals with BMMs. Briefly: Quantitative real-time PCR gene expression in BMMs, wild-type and IFNAR deficient (Example 2). Type of assay: cell-based, murine. The following applies: for TLR3 mRNA production / TLR4 mRNA production: primary macrophages, by four hours; for TLR3 mRNA production / TLR4 mRNA production / IFN-β and IP10 induction at one hour: poly I:C 1 μg/ml, lipid A 1 ng/ml; for IFI-204 expression at one hour / IFN-β and IP10 induction at one hour: wild type and IFNAR knockout macrophages; for ICAM1 mRNA (induction control): wild-type and knockout cells, one and four hours. The procedure:
Murine BMMs were stimulated with poly(I:C) (10 μg/ml) or lipid A (1 ng/ml) for the indicated times. Total RiNA was isolated and converted to cDNA for quantitative real-time PCR analysis using primers specific for IFN-β, IFI-204, IP10, IκBα, or L32. Experiments were repeated three times, and the data are presented in relative expression units on a log scale, as described in Example 2, infra.
Primary macrophage cells derived from bone marrow cells were stimulated with poly I:C (1 μg/ml) or lipid A (1 ng/ml) for the indicated times, as described in Example 2, infra.
(B) TLR3 and TLR4 mRNA levels were also assessed in cells deficient in IFNAR, and cells stimulated with rIFN-β (10, 100, and 1000 U). Experiments were repeated at least two separate times, and data are presented in relative expression units. L32 was used to normalize all samples.
Both wild-type cells and cells deficient in IFNAR were stimulated with poly I:C (1 μg/ml) or lipid A (1 ng/ml) for either 1 or 4 h. IFN-β, IP10, IFI-204, ICAM1, and L32 mRNA levels were assessed. Data are representative of three independent experiments and presented in relative expression units, as described in Example 2, infra.
Murine bone marrow-derived macrophages (BMMs) were differentiated from marrow as previously described (Doyle, S. E., S. A. Vaidya, R. O'Connell, H. Dadgostar, P. W. Dempsey, T.-T. Wu, G. Rao, R. Sun, M. E. Haberland, R. L. Modlin, and G. Cheng. 2002. IRF3 mediates a TLR3/TLR4-specific antiviral gene program. Immunity 17:251). A129 (IFNAR-1^−/−) (Muller, U., U. Steinhoff, L. F. L. Reis, S. Hemmi, J. Pavlovic, R. M. Zinkernagel, and M. Aguet. 1994. Functional role of type I and type II interferons in antiviral defense. Science 264:1918) and B6129SF2/J wild type control mice were obtained from B&K Universal Ltd. and Jackson Laboratories, respectively. C57/B6 mice were used for all experiments not involving the A129 mice (Jackson Laboratories). Specific TLR activation was achieved using F-583 (Rd mutant) E. coli lipid A for TLR4 (Sigma), CpG oligonucleotides for TLR9 (Invitrogen) and poly I:C for TLR3 (Pharmacia). For experiments employing the TIRAP/MAL inhibitory peptide (CN Biosciences), cells were pretreated for 1 hour with 20 μM peptide or DMSO alone. Cells were then stimulated with PAMPs in the presence of the inhibitory peptide. For experiments using murine rIFN-β (R&D Systems), wild-type macrophage cells were stimulated with 10, 100, or 1000 units. Viral infection and harvest was performed using MHV68 at an M.O.I. of 5 as previously described (Doyle, S. E., S. A. Vaidya, R. O'Connell, H. Dadgostar, P. W. Dempsey, T.-T. Wu, G. Rao, R. Sun, M. E. Haberland, R. L. Modlin, and G. Cheng. 2002. IRF3 mediates a TLR3/TLR4-specific antiviral gene program. Immunity 17:251).
RNA was isolated by standard guanidium isothiocyanate methods. cDNA template for quantitative realtime PCR analysis was then synthesized and PCR was performed using the iCycler thermocycler (Bio-Rad) as previously described (Doyle, S. E., S. A. Vaidya, R. O'Connell, H. Dadgostar, P. W. Dempsey, T.-T. Wu, G. Rao, R. Sun, M. E. Haberland, R. L. Modlin, and G. Cheng. 2002. IRF3 mediates a TLR3/TLR4-specific antiviral gene program. Immunity 17:251). IFN-βIP10, IκBα and IFI-204 primers were the same as those previously described (Doyle, S. E., S. A. Vaidya, R. O'Connell, H. Dadgostar, P. W. Dempsey, T.-T. Wu, G. Rao, R. Sun, M. E. Haberland, R. L. Modlin, and G. Cheng. 2002. IRF3 mediates a TLR3/TLR4-specific antiviral gene program. Immunity 17:251). For other genes, the following primers were used: […]

With lipid A, the “inhibition of MHV68 replication” value in the assay on MHV68 is “significantly inhibit MHV68 replication in a concentration dependent manner”. Besides, in the assay with BMMs, the “expression of MyD88 and TIRAP/MAL” value is “can induce the expression”; the “IFI-204 expression by four hours, IFNAR knockout cells” value was “not detectable”; the “IP10 expression by four hours, IFNAR knockout cells” value is given as “remained relatively unchanged”; the “TLR3 mRNA production” value is “caused the induction of TLR3”. Also, in the assay with BMMs, the “TLR4 mRNA production” value is “but not TLR4”; the “IFI-204 expression by four hours, wild type cells” value is listed as “induced to high levels”; the “IP10 expression by four hours, wild type cells” value is given as “significantly enhanced”; the “IFI-204 expression at one hour” value is “remained at basal levels”. Further, in the assay on BMMs, the “IFN-β and IP10 induction at one hour” value is on record as “induced by one hour”; the “ICAM1 mRNA (induction control)” value was “elevated by one hour and remained high by four hours”.

In the case of poly I:C, the “inhibition of MHV68 replication” value with MHV68 is recorded as “significantly inhibit MHV68 replication in a concentration dependent manner”. In the assay with BMMs, the “expression of MyD88 and TIRAP/MAL” value is reported as “can induce the expression”; the “IFI-204 expression by four hours, IFNAR knockout cells” value is given as “not detectable”; the “IP10 expression by four hours, IFNAR knockout cells” value is “remained relatively unchanged”; the “TLR3 mRNA production” value is reported as “caused the induction of TLR3”. Moreover, in the assay on BMMs, the “TLR4 mRNA production” value was “but not TLR4”; the “IFI-204 expression by four hours, wild type cells” value is recorded as “induced to high levels”; the “IP10 expression by four hours, wild type cells” value is “significantly enhanced”; the “IFI-204 expression at one hour” value was “remained at basal levels”. In the assay with BMMs, the “IFN-β and IP10 induction at one hour” value is reported as “induced by one hour”; the “ICAM1 mRNA (induction control)” value was “elevated by one hour and remained high by four hours”. In addition, in the assay with BMMs (BMMs, up to twelve hours, poly I:C 10 μg/ml vs lipid A 1 ng/ml), the “induction of IFN-β, IP10 and IFI-204 relative to TLR4 agonist lipid A” value is “induced to higher levels and for extended periods of time”.
